Measurements from paper PMC7473970, “Preformulation Studies of a Stable PTEN-PDZ Lipopeptide Able to Cross an In Vitro Blood-Brain-Barrier Model as a Potential Therapy for Alzheimer’s Disease” (Pharmaceutical Research, 2020).
Residues, ends and D or L forms follow the SMILES beside them.

What was measured:
[1] = In vitro stability in 50% brain homogenate; format: in vitro ADME, mouse; conditions: 37°C, HPLC-UV 220 nm, one phase decay, least square fit, n = 3
Protocol: (§1) The samples were analyzed at 40°C on a Phenomenex Lichrosorb RP8 C8 column (4.0 mm × 250 mm, 5 μm), using the gradient elution method on an Agilent HPLC system (Agilent Technologies, Cheadle, UK) equipped with an 1100 series degasser, quaternary pump, autosampler, and column heater, and attached to an Agilent 1200 series PDA detector and a 1250 series fluorescent detector. The flow rate was set at 1.2 mL min^-1, and the injection volume was set at 40 μL, while detection was performed at 220 nm. The mobile phase was a mixture of mobile phase A (0.1% TFA in water) and phase B (0.08% TFA in acetonitrile), and in the first 5 min, the mobile phase was an 8:2 ratio of A:B (v/v) and from 5 to 15 min the percentage of B was raised from 8:2 to 1:9 (v/v). Linear calibration curves were constructed for both peptides between 0.1–100 μg.mL^−1. The retention time for the human Lau–PTEN-PDZ, mouse Lau–PTEN-PDZ, human Myr–PTEN-PDZ, and mouse Myr–PTEN-PDZ was 12.03, 11.60, 13.68, and 13.91, respectively.
(§2) The liver and brain of the mice were excised from […] CD-1 male mice (7 weeks-old: Charles River Laboratories) sacrificed with CO2, and the tissue was frozen immediately with liquid nitrogen prior to storage at −80°C. The liver and brain tissue were thawed and homogenized on ice in PBS (2 mL/g of tissue) using a glass 3 mL tissue homogenizer (20 strokes per sample), and the liver and brain homogenates were centrifuged (Heraeus Multifuge 3sf, Fisher Scientific, Basingstoke, UK) at 4300 g for 60 min at 4°C and at 3000 g for 20 min at 4°C, respectively. The supernatant was stored at −80°C, diluted 1:1 (v/v) with PBS (1x, pH 7.4), and used in stability studies. Peptides stocks (5 mM in DMSO) were prepared and maintained at −20°C prior to performing stability studies. These stock solutions (120 μL) were added to the diluted pre-warmed (37°C) liver or brain homogenate (50% v/v, 1080 μL) with agitation (100 rpm: Grant Aqua Waterbath), and samples (80 μL) were taken at 0, 5, 10, 15, 30, 45, 60, 90, 120, 180, 240, 360 and 1440 min, and diluted with ice-cold acetonitrile (80 μL). Samples were vortexed and left at −80°C at least overnight to allow for maximum protein precipitation, the samples were vortexed again for 15 min, centrifuged and the supernatant was analyzed by HPLC as described above.
(§3) The total protein concentration in the homogenates was determined using the Bradford protein assay ([7],[15]) and BSA as a standard. Ten stock solutions of BSA were prepared in PBS between 0.1–1 mg mL^−1, and 40 μL of each of the diluted stocks were added to 1.2 mL of Bradford reagent and incubated at room temperature for 5 min. The absorbance was recorded at 595 nm using a Multiskan GO spectrophotometer and the SkanIt software (Thermo Scientific, Paisley, UK). A linear calibration curve was obtained in this range that was used to extrapolate the protein content of 1:100 v/v stock solutions of 50% mouse plasma, liver, and brain homogenates diluted in PBS.

[2] = In vitro stability in 50% liver homogenate; format: in vitro ADME, mouse; conditions: 37°C, HPLC-UV 220 nm, one phase decay, least square fit, n = 3
Protocol: as §1, §2, §3

[3] = 50% w/v mouse brain homogenate in PBS pH 7.4
[4] = 50% w/v mouse liver homogenate in PBS pH 7.4

CCCCCCCCCCCCCC(=O)N[C@@H](CCC(N)=O)C(=O)N[C@@H](Cc1c[nH]cn1)C(=O)N[C@@H](CO)C(=O)N[C@@H](CCC(N)=O)C(=O)N[C@H](C(=O)N[C@H](C(=O)N[C@@H](CCCCN)C(=O)N[C@H](C(=O)O)C(C)C)[C@@H](C)O)[C@@H](C)CC [Mouse Myr-PTEN-PDZ] (HELM PEPTIDE1{[CCCCCCCCCCCCCC(=O)[*:2]].Q.H.S.Q.I.T.K.V}$$$$V2.0)
k ([1]; 50% w/v CD-1 mouse brain homogenate in PBS pH 7.4, 120 μL of 5 mM DMSO stock in 1080 μL, 100 rpm, 0-1440 min): 2.71 h⁻¹ | t1/2 (h) [1, 3]: 0.25 h | t1/2 (min) [1, 3]: 15.32 min | k ([2]; 50% w/v CD-1 mouse liver homogenate in PBS pH 7.4, 120 μL of 5 mM DMSO stock in 1080 μL, 100 rpm, 0-1440 min): 0.51 h⁻¹ | t1/2 (h) [2, 4]: 1.36 h | t1/2 (min) [2, 4]: 81.66 min
